The supplement of paper PMC13207355

Tests used:
Conditions in all cases: exposure time: 72 h
[1] = test system: E34 (patient-derived glioblastoma stem cells of proneural subtype); assay: surviving fraction (nuclei count normalised to DMSO); higher = more cells surviving (less toxic)
[2] = test system: E57 (patient-derived glioblastoma stem cells of mesenchymal subtype); assay: as above
[3] = test system: E31 (patient-derived glioblastoma stem cells of proneural subtype); assay: as above
[4] = test system: E28 (patient-derived glioblastoma stem cells of classical subtype); assay: as above
[5] = test system: E21 (patient-derived glioblastoma stem cells of mesenchymal subtype); assay: as above
[6] = test system: FT3469 (normal neural stem cell line); assay: as above
[7] = test system: E13 (patient-derived glioblastoma stem cells of classical subtype); assay: as above
[8] = test system: E34; assay: phenotypic distance (Euclidean, principal components) from DMSO controls (arbitrary units); higher = stronger morphological change
[9] = test system: E57; assay: as above
[10] = test system: E31; assay: as above
[11] = test system: E28; assay: as above
[12] = test system: E21; assay: as above
[13] = test system: FT3469; assay: as above
[14] = test system: E13; assay: as above
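Throughout, for phenotypic distance (Euclidean, principal components) from DMSO controls: cell Painting imaging in 384-well plates, CellProfiler features reduced to at least 20 principal components, Euclidean distance versus same-plate DMSO vehicle wells (0.1% v/v), median over six images per well.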
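Throughout, for surviving fraction (nuclei count normalised to DMSO): nuclei counted by high-content imaging of Hoechst-stained cells in laminin-coated 384-well plates, relative to 0.1% DMSO vehicle wells, with staurosporine as cell-death control.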

C[C@@]12C(=O)OC(=O)[C@]1(C)[C@H]1CC[C@@H]2O1 [Cantharidin]
Conditions | phenotypic distance | surviving fraction
[1], 4.1 nM | – | 0.848
[1], 12.3 nM | – | 1.05
[1], 37 nM | – | 1.05
[1], 111.1 nM | – | 0.764
[1], 333.3 nM | – | 0.323
[1], 1000 nM | – | 0.0804
[1], 3000 nM | – | 0.0035
[2], 4.1 nM | – | 0.874
[2], 12.3 nM | – | 0.97
[2], 37 nM | – | 0.933
[2], 111.1 nM | – | 0.882
[2], 333.3 nM | – | 0.172
[2], 1000 nM | – | 0.00764
[2], 3000 nM | – | 0.00204
[3], 4.1 nM | – | 0.771
[3], 12.3 nM | – | 0.967
[3], 37 nM | – | 0.793
[3], 111.1 nM | – | 0.531
[3], 333.3 nM | – | 0.0179
[3], 1000 nM | – | 0
[3], 3000 nM | – | 0.00163
[4], 4.1 nM | – | 1.04
[4], 12.3 nM | – | 1.01
[4], 37 nM | – | 0.751
[4], 111.1 nM | – | 0.783
[4], 333.3 nM | – | 0.171
[4], 1000 nM | – | 0.0107
[4], 3000 nM | – | 0
[5], 4.1 nM | – | 0.865
[5], 12.3 nM | – | 1.05
[5], 37 nM | – | 0.984
[5], 111.1 nM | – | 0.819
[5], 333.3 nM | – | 0.148
[5], 1000 nM | – | 0.00198
[5], 3000 nM | – | 0.00297
[6], 4.1 nM | – | 0.78
[6], 12.3 nM | – | 1.06
[6], 37 nM | – | 0.835
[6], 111.1 nM | – | 0.714
[6], 333.3 nM | – | 0.276
[6], 1000 nM | – | 0.0288
[6], 3000 nM | – | 0.00288
[7], 4.1 nM | – | 0.826
[7], 12.3 nM | – | 0.96
[7], 37 nM | – | 0.919
[7], 111.1 nM | – | 0.735
[7], 333.3 nM | – | 0.139
[7], 1000 nM | – | 0.000925
[7], 3000 nM | – | 0
[8], 4.1 nM | 0.932 | –
[8], 12.3 nM | 0.828 | –
[8], 37 nM | 0.895 | –
[8], 111.1 nM | 2.91 | –
[8], 333.3 nM | 8.47 | –
[8], 1000 nM | 14.9 | –
[8], 3000 nM | 24.2 | –
[9], 4.1 nM | 4.16 | –
[9], 12.3 nM | 0.795 | –
[9], 37 nM | 0.509 | –
[9], 111.1 nM | 1.44 | –
[9], 333.3 nM | 7.24 | –
[9], 1000 nM | 9.13 | –
[9], 3000 nM | 24.7 | –
[10], 4.1 nM | 1.14 | –
[10], 12.3 nM | 0.733 | –
[10], 37 nM | 1.22 | –
[10], 111.1 nM | 2.51 | –
[10], 333.3 nM | 10.8 | –
[10], 1000 nM | 17.7 | –
[10], 3000 nM | 15.6 | –
[11], 4.1 nM | 0.669 | –
[11], 12.3 nM | 0.782 | –
[11], 37 nM | 1.16 | –
[11], 111.1 nM | 2.74 | –
[11], 333.3 nM | 6.99 | –
[11], 1000 nM | 10.5 | –
[11], 3000 nM | 17.9 | –
[12], 4.1 nM | 0.902 | –
[12], 12.3 nM | 0.679 | –
[12], 37 nM | 0.822 | –
[12], 111.1 nM | 2.07 | –
[12], 333.3 nM | 7.76 | –
[12], 1000 nM | 24.2 | –
[12], 3000 nM | 19.8 | –
[13], 4.1 nM | 1.54 | –
[13], 12.3 nM | 0.532 | –
[13], 37 nM | 1.22 | –
[13], 111.1 nM | 1.87 | –
[13], 333.3 nM | 5.81 | –
[13], 1000 nM | 10.9 | –
[13], 3000 nM | 17.1 | –
[14], 4.1 nM | 0.99 | –
[14], 12.3 nM | 0.872 | –
[14], 37 nM | 1.04 | –
[14], 111.1 nM | 2.26 | –
[14], 333.3 nM | 7.52 | –
[14], 1000 nM | 22.3 | –
[14], 3000 nM | 22.7 | –

CC(C)C[C@H](NC(=O)[C@H](CCc1ccccc1)NC(=O)CN1CCOCC1)C(=O)N[C@@H](Cc1ccccc1)C(=O)N[C@@H](CC(C)C)C(=O)[C@@]1(C)CO1 [Carfilzomib]
Conditions | phenotypic distance | surviving fraction
[1], 4.1 nM | – | 0.262
[1], 12.3 nM | – | 0.0542
[1], 37 nM | – | 0.035
[1], 111.1 nM | – | 0.0297
[1], 333.3 nM | – | 0.042
[1], 1000 nM | – | 0.035
[1], 3000 nM | – | 0.0455
[2], 4.1 nM | – | 0.0418
[2], 12.3 nM | – | 0.00509
[2], 37 nM | – | 0.00509
[2], 111.1 nM | – | 0.00305
[2], 333.3 nM | – | 0.00509
[2], 1000 nM | – | 0.00407
[2], 3000 nM | – | 0.00458
[3], 4.1 nM | – | 0.0683
[3], 12.3 nM | – | 0.00163
[3], 37 nM | – | 0.00651
[3], 111.1 nM | – | 0.00163
[3], 333.3 nM | – | 0.00814
[3], 1000 nM | – | 0.013
[3], 3000 nM | – | 0.0195
[4], 4.1 nM | – | 0.177
[4], 12.3 nM | – | 0.0576
[4], 37 nM | – | 0.0811
[4], 111.1 nM | – | 0.0683
[4], 333.3 nM | – | 0.109
[4], 1000 nM | – | 0.0768
[4], 3000 nM | – | 0.16
[5], 4.1 nM | – | 0.281
[5], 12.3 nM | – | 0.00694
[5], 37 nM | – | 0.00198
[5], 111.1 nM | – | 0.000991
[5], 333.3 nM | – | 0
[5], 1000 nM | – | 0.00297
[5], 3000 nM | – | 0.000991
[6], 4.1 nM | – | 0.224
[6], 12.3 nM | – | 0.158
[6], 37 nM | – | 0.124
[6], 111.1 nM | – | 0.095
[6], 333.3 nM | – | 0.0806
[6], 1000 nM | – | 0.112
[6], 3000 nM | – | 0.0863
[7], 4.1 nM | – | 0.0693
[7], 12.3 nM | – | 0.000925
[7], 37 nM | – | 0.00185
[7], 111.1 nM | – | 0.0037
[7], 333.3 nM | – | 0.00277
[7], 1000 nM | – | 0
[7], 3000 nM | – | 0
[8], 4.1 nM | 5.47 | –
[8], 12.3 nM | 11.7 | –
[8], 37 nM | 12.5 | –
[8], 111.1 nM | 13.8 | –
[8], 333.3 nM | 15.8 | –
[8], 1000 nM | 14.1 | –
[8], 3000 nM | 14.9 | –
[9], 4.1 nM | 12.2 | –
[9], 12.3 nM | 12.4 | –
[9], 37 nM | 11.4 | –
[9], 111.1 nM | 12.8 | –
[9], 333.3 nM | 8.61 | –
[9], 1000 nM | 14.1 | –
[9], 3000 nM | 13.2 | –
[10], 4.1 nM | 8.54 | –
[10], 12.3 nM | 12.7 | –
[10], 37 nM | 11.3 | –
[10], 111.1 nM | 12.1 | –
[10], 333.3 nM | 9.53 | –
[10], 1000 nM | 9.35 | –
[10], 3000 nM | 8.45 | –
[11], 4.1 nM | 3.34 | –
[11], 12.3 nM | 5.12 | –
[11], 37 nM | 6.26 | –
[11], 111.1 nM | 5.31 | –
[11], 333.3 nM | 5.36 | –
[11], 1000 nM | 5.52 | –
[11], 3000 nM | 5.18 | –
[12], 4.1 nM | 6.32 | –
[12], 12.3 nM | 12.1 | –
[12], 37 nM | 18.5 | –
[12], 111.1 nM | 17.9 | –
[12], 333.3 nM | 24 | –
[12], 1000 nM | 18.7 | –
[12], 3000 nM | 17.1 | –
[13], 4.1 nM | 5.32 | –
[13], 12.3 nM | 7.47 | –
[13], 37 nM | 7.85 | –
[13], 111.1 nM | 6.13 | –
[13], 333.3 nM | 7.43 | –
[13], 1000 nM | 6.91 | –
[13], 3000 nM | 7.23 | –
[14], 4.1 nM | 7.83 | –
[14], 12.3 nM | 12.9 | –
[14], 37 nM | 15.6 | –
[14], 111.1 nM | 16.7 | –
[14], 333.3 nM | 13.2 | –
[14], 1000 nM | 18.4 | –
[14], 3000 nM | 20.8 | –
